For data set [1], the target named is acetylcholine esterase (AChE) (Electrophorus electricus, UniProt O42275). Type of data set: biochemical.
Substrate in data set [2]: CC(=O)SCC[N+](C)(C)C
As to the kind of experiment: KM of AChE towards acetylthiocholine in solution. The data set is classed as biochemical. The note with it: other: AChE in solution. Here is the method:
The KM value of the AChE linked to the CdS nanoparticles towards acetylthiocholine, (1), is KM=5 mM. This value is higher than the KM=0.13 mM of ACHE and (1) in solution. The higher KM value for the nanoparticle-immobilized ACHE may be attributed to slight deactivation and structural perturbation of the biocatalyst as a result of surface linkage.

Chain of acetylcholine esterase (AChE) (O42275 24-633): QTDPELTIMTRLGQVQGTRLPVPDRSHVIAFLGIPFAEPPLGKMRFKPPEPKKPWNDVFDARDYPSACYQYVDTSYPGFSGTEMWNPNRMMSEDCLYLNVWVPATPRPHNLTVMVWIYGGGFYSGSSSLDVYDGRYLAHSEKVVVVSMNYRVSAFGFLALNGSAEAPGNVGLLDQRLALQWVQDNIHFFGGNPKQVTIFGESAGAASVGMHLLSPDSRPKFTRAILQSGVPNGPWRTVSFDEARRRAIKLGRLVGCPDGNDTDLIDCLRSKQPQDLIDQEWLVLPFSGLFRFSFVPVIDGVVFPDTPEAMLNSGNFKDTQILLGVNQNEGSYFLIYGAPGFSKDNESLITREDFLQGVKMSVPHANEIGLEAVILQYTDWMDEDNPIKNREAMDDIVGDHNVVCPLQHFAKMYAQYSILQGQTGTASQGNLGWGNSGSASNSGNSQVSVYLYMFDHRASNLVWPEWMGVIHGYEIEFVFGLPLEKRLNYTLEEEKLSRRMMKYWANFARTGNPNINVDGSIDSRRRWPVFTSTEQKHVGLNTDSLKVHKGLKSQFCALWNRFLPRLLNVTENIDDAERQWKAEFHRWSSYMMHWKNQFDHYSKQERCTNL

Regarding `C=CC[N+](C)(C)c1ccc(CCC(=O)CCc2ccc([N+](C)(C)CC=C)cc2)cc1` [(3), 1,5-bis(4-allyldimethylammoniumphenyl)pentane-3-one dibromide], in data set [1], the “effect on photocurrent with increasing concentration” value is reported as “decreases the photocurrent”, the mode of inhibition result is recorded as “competitive inhibitor” and the “reversibility: photocurrent after washing off the inhibitor” value is on record as “almost restores the initial photocurrent”.

B1: AChE (Homo sapiens) (protein)
chain: EGREDAELLVTVRGGRLRGIRLKTPGGPVSAFLGIPFAEPPMGPRRFLPPEPKQPWSGVVDATTFQSVCYQYVDTLYPGFEGTEMWNPNRELSEDCLYLNVWTPYPRPTSPTPVLVWIYGGGFYSGASSLDVYDGRFLVQAERTVLVSMNYRVGAFGFLALPGSREAPGNVGLLDQRLALQWVQENVAAFGGDPTSVTLFGESAGAASVGMHLLSPPSRGLFHRAVLQSGAPNGPWATVGMGEARRRATQLAHLVGCPPGGTGGNDTELVACLRTRPAQVLVNHEWHVLPQESVFRFSFVPVVDGDFLSDTPEALINAGDFHGLQVLVGVVKDEGSYFLVYGAPGFSKDNESLISRAEFLAGVRVGVPQVSDLAAEAVVLHYTDWLHPEDPARLREALSDVVGDHNVVCPVAQLAGRLAAQGARVYAYVFEHRASTLSWPLWMGVPHGYEIEFIFGIPLDPSRNYTAEEKIFAQRLMRYWANFARTGDPNEPRDPKAPQWPPYTAGAQQYVSLDLRPLEVRRGLRAQACAFWNRFLPKLLSATDTLDEAERQWKAEFHRWSSYMVHWKNQFDHYSKQDRCSDL
As a reminder, the Km is the substrate concentration at which the rate is half of its maximum. As for B1, in data set [2], the Km is 130 µM.

(Values after patent US20060199240A1, “Biosensor and method comprising enzymes immobilized on semiconductors” (Yissum Research Development Company of the Hebrew …, priority 2002, published 2006).)
